{"source": "paper PMC5394417", "about": "“Investigating the molecular mechanism of positive and negative allosteric modulators in the calcium-sensing receptor dimer” (Scientific Reports, 2017)", "molecular_target": "T1, HA-L797A CaSR mutant (Rattus norvegicus, UniProt P48442, L797A)", "T1 construct": "mGluR5 signal peptide (N); expressed in transfected cells; host or cells: HEK293T", "T1 sequence (P48442 20-1079 L797A)": "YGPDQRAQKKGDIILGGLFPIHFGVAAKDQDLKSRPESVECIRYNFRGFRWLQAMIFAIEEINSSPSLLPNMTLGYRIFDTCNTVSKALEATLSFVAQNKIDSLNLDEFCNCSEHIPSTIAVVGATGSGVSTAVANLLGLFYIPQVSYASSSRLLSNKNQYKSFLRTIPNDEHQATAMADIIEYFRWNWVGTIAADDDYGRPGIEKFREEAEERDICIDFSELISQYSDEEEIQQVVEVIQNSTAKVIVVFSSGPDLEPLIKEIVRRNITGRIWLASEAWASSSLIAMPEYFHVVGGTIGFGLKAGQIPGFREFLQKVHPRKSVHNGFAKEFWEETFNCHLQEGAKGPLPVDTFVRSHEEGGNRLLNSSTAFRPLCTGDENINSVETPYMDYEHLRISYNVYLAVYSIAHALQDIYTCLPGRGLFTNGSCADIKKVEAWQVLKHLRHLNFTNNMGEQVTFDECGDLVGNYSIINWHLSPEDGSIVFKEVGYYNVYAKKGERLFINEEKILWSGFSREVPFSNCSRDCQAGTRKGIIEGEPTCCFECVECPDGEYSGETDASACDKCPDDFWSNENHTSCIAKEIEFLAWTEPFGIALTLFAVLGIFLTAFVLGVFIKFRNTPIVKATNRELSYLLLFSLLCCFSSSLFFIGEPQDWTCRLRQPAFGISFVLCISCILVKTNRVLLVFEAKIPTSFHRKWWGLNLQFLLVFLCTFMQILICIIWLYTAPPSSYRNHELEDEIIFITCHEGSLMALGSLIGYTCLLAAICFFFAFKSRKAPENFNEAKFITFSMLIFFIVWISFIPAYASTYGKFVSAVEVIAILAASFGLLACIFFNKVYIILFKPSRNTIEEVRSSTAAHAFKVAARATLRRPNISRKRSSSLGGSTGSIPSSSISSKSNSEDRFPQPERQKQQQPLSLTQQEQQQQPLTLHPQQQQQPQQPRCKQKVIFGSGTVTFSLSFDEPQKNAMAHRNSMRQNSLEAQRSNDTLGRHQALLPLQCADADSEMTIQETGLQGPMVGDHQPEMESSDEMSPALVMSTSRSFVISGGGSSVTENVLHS", "assay": "IP-One assay, HEK293T transiently transfected", "type": "cell-based", "note": "Where “and” joins values, the source holds several entries; their conditions need not be identical. Identical values can stand only once.", "data": [{"smiles": "[Ca+2]", "note": "[Ca^2+]", "values": [{"measurement": "EC50", "setting": "Ca^2+ alone", "value": 11.7, "unit": "mM"}, {"measurement": "Hill coefficient ± S.E.M.", "setting": "Ca^2+ alone", "value": "3.22 ± 0.71"}, {"measurement": "pEC50 ± S.E.M.", "setting": "Ca^2+ alone", "value": "1.94 ± 0.04"}, {"measurement": "Max ± S.E.M.", "setting": "normalized to maximum response of WT CaSR", "value": "25% and 25 ± 3.5%"}]}]}
